Laboratory results: ChEMBL document CHEMBL4411322 (J Med Chem, 2019)
Non-standard residues stand in square brackets, D forms with d. Residues, ends and D or L forms follow the SMILES beside them. dNMeF = CN[C@H](Cc1ccccc1)C(=O)O

What was measured:
Integrin alpha-V/beta-6 = Integrin alpha-V/beta-6 (Homo sapiens, UniProt P06756+P18564); experiment: Inhibition of LAP binding to human integrin alphavbeta6 receptor after 1 hr by solid-phase binding assay; format: protein-complex assay
Integrin alpha-V/beta-8 = Integrin alpha-V/beta-8 (Homo sapiens, UniProt P06756+P26012); experiment: Inhibition of LAP binding to human integrin alphavbeta8 receptor after 1 hr by solid-phase binding assay; format: protein-complex assay
Homo sapiens = species: Homo sapiens; experiment: Selectivity ratio of IC50 for human integrin alphavbeta6 receptor to IC50 for human integrin alphavbeta8 receptor

Chain of Integrin alpha-V/beta-8 (P06756 31-889 limits assumed): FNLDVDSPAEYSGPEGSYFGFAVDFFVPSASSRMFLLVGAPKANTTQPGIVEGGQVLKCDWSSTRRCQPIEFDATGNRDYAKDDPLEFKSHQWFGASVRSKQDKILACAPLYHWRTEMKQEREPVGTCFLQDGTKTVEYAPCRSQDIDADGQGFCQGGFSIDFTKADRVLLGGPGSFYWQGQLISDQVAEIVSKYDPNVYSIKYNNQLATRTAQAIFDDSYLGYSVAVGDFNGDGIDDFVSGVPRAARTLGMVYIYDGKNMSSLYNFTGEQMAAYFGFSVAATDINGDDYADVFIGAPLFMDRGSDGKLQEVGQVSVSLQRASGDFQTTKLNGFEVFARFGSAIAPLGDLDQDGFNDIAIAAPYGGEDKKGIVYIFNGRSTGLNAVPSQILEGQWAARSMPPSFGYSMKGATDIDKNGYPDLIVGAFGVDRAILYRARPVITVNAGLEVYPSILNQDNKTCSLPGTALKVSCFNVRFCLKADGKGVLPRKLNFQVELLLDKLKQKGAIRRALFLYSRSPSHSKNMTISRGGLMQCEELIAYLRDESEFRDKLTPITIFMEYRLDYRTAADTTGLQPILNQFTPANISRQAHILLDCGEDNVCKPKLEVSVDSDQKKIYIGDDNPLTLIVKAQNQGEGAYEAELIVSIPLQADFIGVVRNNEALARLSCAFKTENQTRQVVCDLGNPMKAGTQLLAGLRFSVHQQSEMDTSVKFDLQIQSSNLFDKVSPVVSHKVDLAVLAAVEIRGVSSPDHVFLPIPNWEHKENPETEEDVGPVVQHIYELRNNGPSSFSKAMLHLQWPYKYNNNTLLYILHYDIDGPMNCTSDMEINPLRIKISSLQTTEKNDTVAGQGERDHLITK
Chain of Integrin alpha-V/beta-8 (P06756 891-1048 limits assumed): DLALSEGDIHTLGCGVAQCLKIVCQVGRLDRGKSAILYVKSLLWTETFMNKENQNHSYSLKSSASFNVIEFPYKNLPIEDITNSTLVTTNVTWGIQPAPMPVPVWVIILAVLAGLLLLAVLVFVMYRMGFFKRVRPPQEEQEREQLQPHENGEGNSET
Chain of Integrin alpha-V/beta-8 (P26012 43-769 limits assumed): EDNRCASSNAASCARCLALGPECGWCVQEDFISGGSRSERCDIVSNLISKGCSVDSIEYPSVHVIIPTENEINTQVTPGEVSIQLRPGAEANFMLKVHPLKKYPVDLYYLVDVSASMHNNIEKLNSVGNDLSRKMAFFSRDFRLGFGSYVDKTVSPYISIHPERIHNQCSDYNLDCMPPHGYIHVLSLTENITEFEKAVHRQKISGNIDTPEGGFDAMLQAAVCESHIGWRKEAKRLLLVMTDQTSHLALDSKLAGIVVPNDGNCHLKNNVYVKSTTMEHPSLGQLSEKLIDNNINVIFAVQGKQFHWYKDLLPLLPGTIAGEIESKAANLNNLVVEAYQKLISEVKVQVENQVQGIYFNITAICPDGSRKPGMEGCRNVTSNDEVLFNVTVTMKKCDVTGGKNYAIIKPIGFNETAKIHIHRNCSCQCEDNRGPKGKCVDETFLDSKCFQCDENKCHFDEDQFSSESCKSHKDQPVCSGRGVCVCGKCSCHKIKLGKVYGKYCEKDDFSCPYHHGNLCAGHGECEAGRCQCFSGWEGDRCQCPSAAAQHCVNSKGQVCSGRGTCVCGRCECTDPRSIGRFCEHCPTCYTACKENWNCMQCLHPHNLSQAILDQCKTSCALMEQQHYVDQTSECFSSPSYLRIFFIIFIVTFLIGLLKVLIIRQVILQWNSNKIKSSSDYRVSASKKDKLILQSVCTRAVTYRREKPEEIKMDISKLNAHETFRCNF
Chain of Integrin alpha-V/beta-6 (P06756 31-889 limits assumed): as the sequence (P06756 31-889 limits assumed) above
Chain of Integrin alpha-V/beta-6 (P06756 891-1048 limits assumed): as the sequence (P06756 891-1048 limits assumed) above
Chain of Integrin alpha-V/beta-6 (P18564 22-788 limits assumed): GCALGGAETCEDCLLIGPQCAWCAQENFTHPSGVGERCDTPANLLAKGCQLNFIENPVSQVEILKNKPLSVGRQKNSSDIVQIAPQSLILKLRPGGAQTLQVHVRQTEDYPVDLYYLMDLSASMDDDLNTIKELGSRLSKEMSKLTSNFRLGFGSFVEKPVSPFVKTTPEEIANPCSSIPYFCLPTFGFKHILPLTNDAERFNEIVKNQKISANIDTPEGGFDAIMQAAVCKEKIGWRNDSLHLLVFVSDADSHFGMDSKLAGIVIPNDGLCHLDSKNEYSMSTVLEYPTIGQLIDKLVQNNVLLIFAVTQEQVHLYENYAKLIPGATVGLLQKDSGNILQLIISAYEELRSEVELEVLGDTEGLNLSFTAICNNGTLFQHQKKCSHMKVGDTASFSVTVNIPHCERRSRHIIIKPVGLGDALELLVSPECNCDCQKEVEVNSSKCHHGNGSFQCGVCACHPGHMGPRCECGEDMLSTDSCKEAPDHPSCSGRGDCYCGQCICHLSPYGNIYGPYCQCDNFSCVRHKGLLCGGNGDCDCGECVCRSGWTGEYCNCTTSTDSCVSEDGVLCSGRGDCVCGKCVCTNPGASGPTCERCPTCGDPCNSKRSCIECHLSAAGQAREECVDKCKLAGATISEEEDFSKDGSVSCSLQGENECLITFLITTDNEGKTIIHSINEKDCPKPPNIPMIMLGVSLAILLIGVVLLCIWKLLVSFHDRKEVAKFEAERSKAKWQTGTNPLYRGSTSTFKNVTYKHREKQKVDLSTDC

SMILES	IC50 (Integrin alpha-V/beta-6; read-out: IC50) [nM]	IC50 (Integrin alpha-V/beta-8; read-out: IC50) [nM]	Ratio IC50 (Homo sapiens)	IC50 (Integrin alpha-V/beta-6)	IC50 (Integrin alpha-V/beta-8)
CC(C)C[C@@H]1NC(=O)[C@H](CC(=O)O)NC(=O)[C@H](CO)NC(=O)[C@H](CCCNC(=N)N)NC(=O)[C@H](Cc2ccccc2)NC(=O)[C@H](C)NC(=O)[C@@H]2CCCN2C(=O)[C@H]2CCCN2C1=O	369	5.8	64		
CC[C@H](C)[C@@H]1NC(=O)[C@H](C)NC(=O)[C@@H]2CCCN2C(=O)[C@H]2CCCN2C(=O)[C@H](CC(C)C)NC(=O)[C@H](CC(=O)O)NC(=O)CNC(=O)[C@H](CCCNC(=N)N)NC1=O	40.2	1.54	26.1		
CC(C)C[C@@H]1NC(=O)[C@H](CC(=O)O)NC(=O)CNC(=O)[C@H](CCCNC(=N)N)NC(=O)[C@H](c2ccccc2)NC(=O)[C@H](C)NC(=O)[C@@H]2CCCN2C(=O)[C@H]2CCCN2C1=O	29.6	6.4	4.6		
CC(C)C[C@@H]1NC(=O)[C@@H]2CCCN2C(=O)[C@H]2CCCN2C(=O)[C@H](CC(C)C)NC(=O)[C@H](CC(=O)O)NC(=O)CNC(=O)[C@H](CCCNC(=N)N)NC(=O)[C@H](C)NC1=O	420	114	3.7		
CC(C)C[C@@H]1NC(=O)[C@H](CC(=O)O)NC(=O)CNC(=O)[C@H](CCCNC(=N)N)NC(=O)[C@H](CCCCN)NC(=O)[C@H](C)NC(=O)[C@@H]2CCCN2C(=O)[C@H]2CCCN2C1=O	40.7	7.32	5.6		
C[C@@H]1NC(=O)[C@@H]2CCCN2C(=O)[C@H]2CCCN2C(=O)[C@H](CCCCN)NC(=O)[C@H](CC(=O)O)NC(=O)CNC(=O)[C@H](CCCNC(=N)N)NC(=O)[C@H](Cc2ccccc2)NC1=O	826	4340			
CC(C)C[C@@H]1NC(=O)[C@H](C)NC(=O)[C@@H]2CCCN2C(=O)[C@@H](CC(C)C)N(C)C(=O)[C@H](CC(C)C)NC(=O)[C@H](CC(=O)O)NC(=O)CNC(=O)[C@H](CCCNC(=N)N)NC1=O	95	15	6.3		
CC(C)C[C@@H]1NC(=O)[C@H](CC(=O)O)NC(=O)[C@H]([C@@H](C)O)NC(=O)[C@H](CCCNC(=N)N)NC(=O)[C@H](C)NC(=O)[C@@H]2CCCN2C(=O)[C@H]2CCCN2C(=O)[C@H](CC(C)C)NC(=O)[C@H](C)NC(=O)[C@H](C)NC1=O	264	1290			
CC(C)C[C@@H]1NC(=O)[C@H](CC(=O)O)NC(=O)CNC(=O)[C@H](CCCNC(=N)N)NC(=O)[C@H](C)NC(=O)[C@H](C)NC(=O)[C@@H]2CCCN2C(=O)[C@H]2CCCN2C1=O	114	8.1	14.1		
CC(C)C[C@@H]1NC(=O)[C@H](CC(=O)O)NC(=O)CNC(=O)[C@H](CCCNC(=N)N)NC(=O)[C@H](Cc2ccccc2)NC(=O)[C@H](C)NC(=O)[C@@H]2CCCN2C(=O)[C@H]2CCCN2C1=O	81.3	1.83	44.1		
CC(C)C[C@@H]1NC(=O)[C@H](CC(=O)O)NC(=O)[C@H]([C@@H](C)O)NC(=O)[C@H](CCCNC(=N)N)NC(=O)[C@H](C)NC(=O)[C@H](CC(C)C)NC(=O)[C@@H]2CCCN2C(=O)[C@H]2CCCN2C(=O)[C@H](C)NC(=O)[C@H](C)NC1=O	94.5	153			
CC(C)C[C@@H]1NC(=O)[C@H](CC(=O)O)NC(=O)CNC(=O)[C@H](CCCNC(=N)N)NC(=O)CNC(=O)[C@H](C)NC(=O)[C@@H]2CCCN2C(=O)[C@H]2CCCN2C1=O	42.4	15.9	2.7		
CC(C)C[C@@H]1NC(=O)[C@H](C)NC(=O)[C@@H]2CCCN2C(=O)[C@@H](Cc2ccccc2)N(C)C(=O)[C@H](CC(C)C)NC(=O)[C@H](CC(=O)O)NC(=O)CNC(=O)[C@H](CCCNC(=N)N)NC1=O (cyclo(RGDL[dNMeF]PAL))			15		
CC(=O)NCCCC[C@@H]1C(=O)N2CCC[C@H]2C(=O)NCC(=O)N[C@@H](CC(C)C)C(=O)N[C@@H](CCCNC(=N)N)C(=O)NCC(=O)N[C@@H](CC(=O)O)C(=O)N[C@@H](CC(C)C)C(=O)N1C	215	57	3.8		
CC(C)C[C@@H]1NC(=O)[C@H](C)NC(=O)[C@H](Cc2ccccc2)N(C)C(=O)[C@H]2CCCN2C(=O)[C@H](CC(C)C)NC(=O)[C@H](CC(=O)O)NC(=O)CNC(=O)[C@H](CCCNC(=N)N)NC1=O	74	25	3		
CC(C)C[C@@H]1NC(=O)[C@H](C)NC(=O)[C@@H]2CCCN2C(=O)[C@@H](C(C)C)N(C)C(=O)[C@H](CC(C)C)NC(=O)[C@H](CC(=O)O)NC(=O)CNC(=O)[C@H](CCCNC(=N)N)NC1=O	31	19	1.6		

SMILES	IC50 (Integrin alpha-V/beta-6; read-out: IC50) [nM]	IC50 (Integrin alpha-V/beta-8; read-out: IC50) [nM]	Ratio IC50 (Homo sapiens)	IC50 (Integrin alpha-V/beta-6)	IC50 (Integrin alpha-V/beta-8)
CC(=O)NCCCCCCN1C(=O)[C@H]2CCCN2C(=O)[C@H](CC(C)C)NC(=O)[C@H](CC(=O)O)NC(=O)CNC(=O)[C@H](CCCNC(=N)N)NC(=O)[C@H](CC(C)C)NC(=O)CNC(=O)[C@@H]1C		20			
CC(C)C[C@@H]1NC(=O)[C@H](C)NC(=O)[C@H](C)NC(=O)[C@H](CC(C)C)NC(=O)[C@H](CC(=O)O)NC(=O)CNC(=O)[C@H](CCCNC(=N)N)NC(=O)[C@@H]2CCCN2C(=O)[C@H]2CCCN2C(=O)[C@H](C)NC1=O	14.5	614			
CC(C)C[C@@H]1NC(=O)[C@H](C)NC(=O)[C@@H]2CCCN2C(=O)[C@H]2CCCN2C(=O)[C@H](C)NC(=O)[C@H](CC(C)C)NC(=O)[C@H](CC(=O)O)NC(=O)CNC(=O)[C@H](CCCNC(=N)N)NC(=O)[C@H](C)NC1=O	69.9	1110			
CC(C)[C@@H]1NC(=O)[C@H](CC(=O)O)NC(=O)CNC(=O)[C@H](CCCNC(=N)N)NC(=O)[C@H](Cc2ccccc2)NC(=O)[C@H](C)NC(=O)[C@@H]2CCCN2C(=O)[C@H]2CCCN2C1=O		467		Not Active	
CC(C)C[C@@H]1NC(=O)[C@H](C)NC(=O)[C@@H]2CCCN2C(=O)[C@H]2CCCN2C(=O)[C@H](C)NC(=O)[C@H](CC(C)C)NC(=O)[C@H](CC(=O)O)NC(=O)[C@H]([C@@H](C)O)NC(=O)[C@H](CCCNC(=N)N)NC(=O)[C@H](C)NC1=O	495	8410			
CC(C)C[C@@H]1NC(=O)[C@H](CC(=O)O)NC(=O)CNC(=O)[C@H](CCCNC(=N)N)NC(=O)[C@H](C)NC(=O)[C@H](CC(C)C)NC(=O)[C@@H]2CCCN2C(=O)[C@H]2CCCN2C(=O)[C@H](C)NC(=O)[C@H](C)NC1=O	13.4	109			
CC(C)C[C@@H]1NC(=O)[C@H](CC(=O)O)NC(=O)CNC(=O)[C@H](CCCNC(=N)N)NC(=O)[C@@H](c2ccccc2)NC(=O)[C@H](C)NC(=O)[C@@H]2CCCN2C(=O)[C@H]2CCCN2C1=O	48.4	90.3			
CC(C)C[C@@H]1NC(=O)[C@H](CC(=O)O)NC(=O)CNC(=O)[C@H](CCCNC(=N)N)NC(=O)[C@H](C)NC(=O)[C@@H]2CCCN2C(=O)[C@H]2CCCN2C1=O (cyclo(ARGDL[dP]P))		197	2.1		
CC(=O)NCCCCCCNC(=N)NCCC[C@@H]1NC(=O)[C@H](CC(C)C)NC(=O)CNC(=O)[C@@H]2CCCN2C(=O)[C@H]2CCCN2C(=O)[C@H](CC(C)C)NC(=O)[C@H](CC(=O)O)NC(=O)CNC1=O		230			
CC(C)C[C@@H]1NC(=O)[C@H](CC(=O)O)NC(=O)[C@@H]([C@H](C)O)NC(=O)[C@H](CCCNC(=N)N)NC(=O)[C@H](Cc2ccccc2)NC(=O)[C@H](C)NC(=O)[C@@H]2CCCN2C(=O)[C@H]2CCCN2C1=O				Not Active	Not Active
CC(=O)NCCCCN1C(=O)[C@H]2CCCN2C(=O)[C@H](CC(C)C)NC(=O)[C@H](CC(=O)O)NC(=O)CNC(=O)[C@H](CCCNC(=N)N)NC(=O)[C@H](CC(C)C)NC(=O)CNC(=O)[C@@H]1C		27			
CC(C)C[C@@H]1NC(=O)[C@H](C)NC(=O)[C@H](C)NC(=O)[C@H](CC(C)C)NC(=O)[C@H](CC(=O)O)NC(=O)[C@H]([C@@H](C)O)NC(=O)[C@H](CCCNC(=N)N)NC(=O)[C@@H]2CCCN2C(=O)[C@H]2CCCN2C(=O)[C@H](C)NC1=O	1550	3080			
C[C@@H]1NC(=O)[C@@H]2CCCN2C(=O)[C@H]2CCCN2C(=O)[C@H](Cc2ccccc2)NC(=O)[C@H](CC(=O)O)NC(=O)CNC(=O)[C@H](CCCNC(=N)N)NC(=O)[C@H](Cc2ccccc2)NC1=O	324	1150			
CC(C)C[C@@H]1NC(=O)[C@H](CO)NC(=O)[C@@H]2CCCN2C(=O)[C@H]2CCCN2C(=O)[C@H](CC(C)C)NC(=O)[C@H](CC(=O)O)NC(=O)CNC(=O)[C@H](CCCNC(=N)N)NC1=O (cyclo(RGDL[dP]PSL))			15		
CC(C)C[C@@H]1NC(=O)[C@H](CC(=O)O)NC(=O)CNC(=O)[C@H](CCCNC(=N)N)NC(=O)[C@H](C)NC(=O)[C@@H]2CCCN2C(=O)[C@H]2CCCN2C(=O)[C@H](CC(C)C)NC(=O)[C@H](C)NC(=O)[C@H](C)NC1=O (cyclo(RGDLAAL[dP]PA))		88.6			
CC(C)C[C@H]1NC(=O)[C@H](CC(=O)O)NC(=O)CNC(=O)[C@H](CCCNC(=N)N)NC(=O)[C@H](Cc2ccccc2)NC(=O)[C@H](C)NC(=O)[C@@H]2CCCN2C(=O)[C@H]2CCCN2C1=O	559				Not Active
